Source: patent US20140349948A1, “Treatment of Chronic Constipation” (Forest Laboratories Holdings Limited, priority 2009, published 2014)
Marks after values point to notes of the source that are not given here. Residues, ends and D or L forms follow the SMILES beside them.

Experiments:
[1] = test system: patients meeting modified Rome II criteria for chronic constipation; test: Chronic Constipation Trial 1, 12-week treatment period; type: in vivo, human; settings: for Straining, Week 1 Mean Change from Baseline / Abdominal discomfort, Week 1 Mean Change from Baseline / Bloating, Week 1 Mean Change from Baseline / Constipation severity, Week 1 Mean Change from Baseline: 5-point scale: 1 = none; for Straining, Week 1 Mean Change from Baseline: 5 = an extreme amount; for Abdominal discomfort, Week 1 Mean Change from Baseline / Bloating, Week 1 Mean Change from Baseline / Constipation severity, Week 1 Mean Change from Baseline: 5 = very severe; for Stool Consistency, Week 1 Mean Change from Baseline: 7-point scale (BSFS)
Procedure: (§1) Linaclotide Capsules from Example 4 were administered in multicenter, randomized, double-blind, placebo-controlled trials.
(§2) Trial 1 was conducted in 630 patients meeting modified Rome II criteria for chronic constipation. The trial included a two-week pretreatment baseline period and a 12-week treatment period. A diagram of the study design for Trial 2 is given in FIG. 1, which is substantially similar to Trial 1 except for the addition of a Randomized Withdrawal period in Trial 2 as described below.
The Pretreatment Period is defined as the 14 to 21 calendar days immediately before starting the trial during which where patients provided information related to their daily bowel habits, daily assessment of the symptom severity, constipation severity, and use of other medicines, laxatives, suppositories, and/or enemas. Patients who satisfy the necessary criteria were entered into the Treatment Period. During the two-week pretreatment period, 72 percent of patients in Trial 1 had no CSBMs. A CSBM is an bowel movement that occurs in the absence of laxative, enema, or suppository usage within the preceding 24 hours that is accompanied by the patient self-reporting a feeling of complete emptying of the bowel.
The Treatment Period began with randomization and lasted for 12 weeks. Patients were randomized to treatment with 133 μg linaclotide, 266 μg linaclotide, or placebo (1:1:1), taken once daily in the morning. Patients continued to provide their daily assessments such as their daily bowel habit assessments and daily patient symptom severity assessments.

[2] = test system: patients with chronic constipation; test: Trials 1 and 2 pooled; type: in vivo, human; settings: for Straining, Week 1 Mean Change from Baseline: 5 = an extreme amount
Procedure: as §1, §2
Trial 2 was conducted in 642 patients and was identical to Trial 1 except that Trial 2 also included a four-week Randomized Withdrawal Period, defined below. During the two-week pretreatment (baseline) period, 68 percent of patients in Trial 2 had no CSBMs.

[3] = Trial 1, 133 μg (p≦0.0001) and 266 μg (p≦0.0001)
[4] = Trial 1, 133 μg (p≦0.001) and 266 μg (p≦0.0001)
[5] = 133 μg, Pooled (n = 430), 5-point scale: 1 = none, 5 = very severe

**Q.** With C[C@@H]1NC(=O)[C@@H]2CCCN2C(=O)[C@H](CC(N)=O)NC(=O)[C@@H]2CSSC[C@H](N)C(=O)N[C@H]3CSSC[C@H](NC1=O)C(=O)N[C@@H]([C@@H](C)O)C(=O)NCC(=O)N[C@H](C(=O)N[C@@H](Cc1ccc(O)cc1)C(=O)O)CSSC[C@H](NC(=O)[C@H](Cc1ccc(O)cc1)NC(=O)[C@H](CCC(=O)O)NC3=O)C(=O)N2 [Linaclotide, Cys1 Cys2 Glu3 Tyr4 Cys5 Cys6 Asn7 Pro8 Ala9 Cys10 Thr11 Gly12 Cys13 Tyr14] (HELM PEPTIDE1{C.C.E.Y.C.C.N.P.A.C.T.G.C.Y}$PEPTIDE1,PEPTIDE1,1:R3-6:R3|PEPTIDE1,PEPTIDE1,2:R3-10:R3|PEPTIDE1,PEPTIDE1,5:R3-13:R3$$$V2.0) as the compound, how does the “CSBM rate, Week 1 Mean Change from Baseline” value (“CSBM rate, Week 1 Mean Change” below) ([1]; 133 μg, Trial 1 (n = 213)) read?
**A.** 1.94***

**Q.** And the “SBM rate, Week 1 Mean Change from Baseline” value ([1]; 133 μg, Trial 1 (n = 213))?
**A.** 4.09***

**Q.** What about the “Straining, Week 1 Mean Change from Baseline” value (from here on “Straining, Week 1 Mean Change”) ([1]; 133 μg, Trial 1 (n = 213)) of the same compound?
**A.** −1.04***

**Q.** And the “Abdominal discomfort, Week 1 Mean Change from Baseline” value ([1]; 133 μg, Trial 1 (n = 213))?
**A.** −0.27**

**Q.** And the “Bloating, Week 1 Mean Change from Baseline” value (shortened to “Bloating, Week 1 Mean Change”) ([1]; 133 μg, Trial 1 (n = 213))?
**A.** −0.31*

**Q.** And the “Constipation severity, Week 1 Mean Change from Baseline” value ([1]; 133 μg, Trial 1 (n = 213))?
**A.** −0.78***

**Q.** What about the “Stool Consistency, Week 1 Mean Change from Baseline” value ([1]; 133 μg, Trial 1 (n = 213)) of the same compound?
**A.** 1.79***

**Q.** What about the “CSBM rate, Week 1 Mean Change” value ([1]; 266 μg, Trial 1 (n = 202)) of the same compound?
**A.** 2.63***

**Q.** And the “SBM rate, Week 1 Mean Change from Baseline” value ([1]; 266 μg, Trial 1 (n = 202))?
**A.** 4.09***

**Q.** What about the “Straining, Week 1 Mean Change” value ([1]; 266 μg, Trial 1 (n = 202)) of the same compound?
**A.** −1.10***

**Q.** What about the “Abdominal discomfort, Week 1 Mean Change from Baseline” value ([1]; 266 μg, Trial 1 (n = 202)) of the same compound?
**A.** −0.28***

**Q.** What about the “Bloating, Week 1 Mean Change” value ([1]; 266 μg, Trial 1 (n = 202)) of the same compound?
**A.** −0.36***

**Q.** And the “Constipation severity, Week 1 Mean Change from Baseline” value ([1]; 266 μg, Trial 1 (n = 202))?
**A.** −0.81***

**Q.** And the “Stool Consistency, Week 1 Mean Change from Baseline” value ([1]; 266 μg, Trial 1 (n = 202))?
**A.** 1.96***

**Q.** And the “12-week CSBM overall responder rate” value ([1]; Trial 1, 133 μg)?
**A.** 16.0%

**Q.** What about the “increase in average weekly CSBMs from baseline” value ([1]; Trial 1, 133 μg) of the same compound?
**A.** 2.0

**Q.** And the “increase in average weekly SBMs from baseline” value ([1]; Trial 1, 133 μg)?
**A.** 3.4

**Q.** What about the “numerical increase of 12-week CSBM overall responder rate as compared to placebo” value ([1]; Trial 1, 133 μg) of the same compound?
**A.** 2.6 fold

**Q.** And the “patients reporting at least one CSBM within 24 hours of treatment” value ([1]; Trial 1, 133 μg)?
**A.** 28.2%

**Q.** And the “patients reporting at least one SBM within 24 hours of treatment” value ([1]; Trial 1, 133 μg)?
**A.** 64.3%

**Q.** And the “patients with increase of ≧1 from baseline in weekly CSBMs in at least nine out of 12 weeks” value ([1]; Trial 1, 133 μg)?
**A.** 31.0%

**Q.** What about the “patients with increase of ≧1 from baseline in weekly CSBMs in at least six out of 12 weeks” value ([1]; Trial 1, 133 μg) of the same compound?
**A.** 47.4%

**Q.** And the “patients with ≧3 weekly CSBMs in at least nine out of 12 weeks” value ([1]; Trial 1, 133 μg)?
**A.** 16.0%

**Q.** And the “12-week CSBM overall responder rate” value ([1]; Trial 1, 266 μg)?
**A.** 21.3%

**Q.** What about the “increase in average weekly CSBMs from baseline” value ([1]; Trial 1, 266 μg) of the same compound?
**A.** 2.7

**Q.** And the “increase in average weekly SBMs from baseline” value ([1]; Trial 1, 266 μg)?
**A.** 3.7

**Q.** What about the “numerical increase of 12-week CSBM overall responder rate as compared to placebo” value ([1]; Trial 1, 266 μg) of the same compound?
**A.** 3.5 fold

**Q.** And the “patients reporting at least one CSBM within 24 hours of treatment” value ([1]; Trial 1, 266 μg)?
**A.** 29.7%

**Q.** And the “patients reporting at least one SBM within 24 hours of treatment” value ([1]; Trial 1, 266 μg)?
**A.** 60.4%

**Q.** And the “patients with increase of ≧1 from baseline in weekly CSBMs in at least nine out of 12 weeks” value ([1]; Trial 1, 266 μg)?
**A.** 40.1%

**Q.** And the “patients with increase of ≧1 from baseline in weekly CSBMs in at least six out of 12 weeks” value ([1]; Trial 1, 266 μg)?
**A.** 51.0%

**Q.** What about the “patients with ≧3 weekly CSBMs in at least nine out of 12 weeks” value ([1]; Trial 1, 266 μg) of the same compound?
**A.** 21.8%

**Q.** What about the “PAC-QOL overall assessments, 12 week overall mean change versus placebo” value [1, 3] of the same compound?
**A.** statistically significant improvements

**Q.** And the “PAC-QOL subscale score Physical Discomfort versus placebo” value [1, 3]?
**A.** statistically significant improvements

**Q.** What about the “PAC-QOL subscale score Satisfaction versus placebo” value [1, 3] of the same compound?
**A.** statistically significant improvements

**Q.** What about the “PAC-QOL subscale score Worries/Concerns versus placebo” value [1, 3] of the same compound?
**A.** statistically significant improvements

**Q.** What about the “severity of straining score, 12 week overall mean change versus placebo” value [1, 3] of the same compound?
**A.** statistically significant improvements

**Q.** What about the “stool consistency score, 12 week overall mean change versus placebo” value [1, 3] of the same compound?
**A.** statistically significant improvements

**Q.** What about the “abdominal discomfort score, 12 week overall mean change versus placebo” value [1, 4] of the same compound?
**A.** statistically significant improvements

**Q.** What about the “bloating score, 12 week overall mean change versus placebo” value [1, 4] of the same compound?
**A.** statistically significant improvements

**Q.** And the “constipation severity score, 12 week overall mean change versus placebo” value [1, 4]?
**A.** statistically significant improvements

**Q.** What about the “CSBM rate, Week 1 Mean Change” value ([2]; 133 μg, Pooled (n = 430)) of the same compound?
**A.** 2.02**

**Q.** And the “SBM rate, Week 1 Mean Change from Baseline” value ([2]; 133 μg, Pooled (n = 430))?
**A.** 3.96***

**Q.** What about the “Straining, Week 1 Mean Change” value ([2]; 133 μg, Pooled (n = 430), 5-point scale: 1 = none) of the same compound?
**A.** −1.02***

**Q.** What about the “Abdominal discomfort, Week 1 Mean Change from Baseline” value [2, 5] of the same compound?
**A.** −0.26***

**Q.** And the “Bloating, Week 1 Mean Change” value [2, 5]?
**A.** −0.31***

**Q.** What about the “Constipation severity, Week 1 Mean Change from Baseline” value [2, 5] of the same compound?
**A.** −0.82***

**Q.** And the “Stool Consistency, Week 1 Mean Change from Baseline” value ([2]; 133 μg, Pooled (n = 430), 7-point scale (BSFS))?
**A.** 1.78***

**Q.** And the “CSBM rate, Week 1 Mean Change” value ([2]; 266 μg, Pooled (n = 418))?
**A.** 2.42**

**Q.** And the “SBM rate, Week 1 Mean Change from Baseline” value ([2]; 266 μg, Pooled (n = 418))?
**A.** 4.01***

**Q.** What about the “Straining, Week 1 Mean Change” value ([2]; 266 μg, Pooled (n = 418), 5-point scale: 1 = none) of the same compound?
**A.** −1.14***

**Q.** And the “Abdominal discomfort, Week 1 Mean Change from Baseline” value ([2]; 266 μg, Pooled (n = 418), 5-point scale: 1 = none, 5 = very severe)?
**A.** −0.26***
